Each structure is given as a SMILES string. Where “and” joins values, the source holds several entries; their conditions need not be identical. Equal values may be shown once.

The target of the test is T1, Adenosine receptor A1 (Gallus gallus, UniProt P49892).
T1 sequence (P49892 whole entry): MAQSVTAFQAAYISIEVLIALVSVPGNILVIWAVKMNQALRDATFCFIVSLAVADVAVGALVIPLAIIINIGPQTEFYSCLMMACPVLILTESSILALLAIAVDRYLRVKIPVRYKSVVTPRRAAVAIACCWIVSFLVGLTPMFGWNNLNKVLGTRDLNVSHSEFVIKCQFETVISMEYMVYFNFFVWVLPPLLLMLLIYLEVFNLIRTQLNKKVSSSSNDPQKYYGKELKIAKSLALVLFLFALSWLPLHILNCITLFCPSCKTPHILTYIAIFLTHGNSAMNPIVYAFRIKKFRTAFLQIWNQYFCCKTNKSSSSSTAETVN
In general, Ki refers to a dissociation constant, usually derived from enzyme kinetics or from competition with a known ligand. A low value points to higher affinity. Turning to `CCNC(=O)[C@H]1O[C@@H](n2cnc3c(N)ncnc32)[C@H](O)[C@@H]1O`, the Ki is 0.0144 µM and 0.0169 µM.

Regarding `CCn1c(=O)c2[nH]c(-c3ccccc3)nc2n(CC)c1=O` [1,3-Diethyl-8-phenyl-3,7-dihydro-purine-2,6-dione], the Ki was 2.07 µM and 0.79 µM.

`OC[C@H]1O[C@@H](n2cnc3c(NC4CCCCC4)ncnc32)[C@H](O)[C@@H]1O` [CHA]: the Ki came out at 0.0025 µM.

The values are drawn from BindingDB's records for PubMed 3252029 (University of Illinois At Chicago, 1988).
